# Test results as given in patent US10670605B2, “Cysteine reactive probes and uses thereof” (The Scripps Research Institute, priority 2015, dated 2020).
# Key:
# [1] = target: O114933_C98 (Homo sapiens, UniProt O14933); test: Competitive isoTOP-ABPP, cell lysates; assay type: binding; settings: 500 μm
# [2] = target: cysteines in MDA-MB-231 and Ramos cells (Homo sapiens, UniProt Q96FX7); test: Competitive isoTOP-ABPP in situ (fragment-treated cells); assay type: cell-based
# [3] = target: cysteines in MDA-MB-231 and Ramos cells (Homo sapiens, UniProt Q9UJW0); test: as above; assay type: cell-based
# [4] = target: T1, cysteines in MDA-MB-231 and Ramos cells (Homo sapiens, UniProt Q8N1F7); test: as above; assay type: cell-based; settings: 200 μM, insitu
# T1 sequence (Q8N1F7 1-819): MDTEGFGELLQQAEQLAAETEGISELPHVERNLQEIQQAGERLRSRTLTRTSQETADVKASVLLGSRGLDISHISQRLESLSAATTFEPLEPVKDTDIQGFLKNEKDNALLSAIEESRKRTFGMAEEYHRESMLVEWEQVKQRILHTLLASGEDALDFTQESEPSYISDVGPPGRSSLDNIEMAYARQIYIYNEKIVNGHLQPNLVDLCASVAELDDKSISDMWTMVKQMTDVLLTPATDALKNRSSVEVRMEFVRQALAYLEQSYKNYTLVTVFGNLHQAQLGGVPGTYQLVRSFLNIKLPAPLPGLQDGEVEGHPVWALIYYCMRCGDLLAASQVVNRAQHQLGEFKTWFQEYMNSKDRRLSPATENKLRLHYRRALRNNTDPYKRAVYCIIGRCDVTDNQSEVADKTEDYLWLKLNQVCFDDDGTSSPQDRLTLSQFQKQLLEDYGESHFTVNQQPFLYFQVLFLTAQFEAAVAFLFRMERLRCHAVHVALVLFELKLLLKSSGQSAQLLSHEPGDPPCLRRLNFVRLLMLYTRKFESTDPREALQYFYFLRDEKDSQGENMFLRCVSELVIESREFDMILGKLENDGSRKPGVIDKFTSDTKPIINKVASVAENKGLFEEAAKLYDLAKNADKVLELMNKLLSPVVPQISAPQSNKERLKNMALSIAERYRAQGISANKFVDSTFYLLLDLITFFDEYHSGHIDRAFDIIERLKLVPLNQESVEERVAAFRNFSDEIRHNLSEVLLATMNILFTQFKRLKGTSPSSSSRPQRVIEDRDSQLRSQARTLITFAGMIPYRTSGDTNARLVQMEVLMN
# [5] = target: T2, cysteines in MDA-MB-231 and Ramos cells (Homo sapiens, UniProt Q07065); test: as above; assay type: cell-based
# T2 sequence (Q07065 1-602): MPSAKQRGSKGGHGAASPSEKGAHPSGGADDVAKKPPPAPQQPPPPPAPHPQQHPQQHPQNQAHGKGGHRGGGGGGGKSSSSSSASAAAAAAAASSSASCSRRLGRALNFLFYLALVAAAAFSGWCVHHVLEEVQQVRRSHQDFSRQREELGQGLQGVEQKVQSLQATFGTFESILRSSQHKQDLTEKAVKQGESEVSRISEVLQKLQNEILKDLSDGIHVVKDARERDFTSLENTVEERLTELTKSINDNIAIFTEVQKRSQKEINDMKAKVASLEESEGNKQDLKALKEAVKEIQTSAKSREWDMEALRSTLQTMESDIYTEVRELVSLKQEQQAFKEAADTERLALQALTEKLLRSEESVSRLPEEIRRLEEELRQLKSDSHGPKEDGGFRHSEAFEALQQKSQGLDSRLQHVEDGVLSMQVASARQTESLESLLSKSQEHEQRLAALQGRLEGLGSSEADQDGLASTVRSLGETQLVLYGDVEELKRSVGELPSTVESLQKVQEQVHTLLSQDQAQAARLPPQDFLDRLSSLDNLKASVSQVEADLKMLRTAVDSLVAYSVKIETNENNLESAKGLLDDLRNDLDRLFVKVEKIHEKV
# [6] = target: cysteines in MDA-MB-231 and Ramos cells (Homo sapiens, UniProt P52948); test: as above; assay type: cell-based; settings: 200 μM, insitu, 231
# [7] = target: O00541_C272 (Homo sapiens, UniProt O00541); test: Competitive isoTOP-ABPP, cell lysates; assay type: binding; settings: 500 μm
# Sequence of O00541_C272 (O00541 whole entry, looked up): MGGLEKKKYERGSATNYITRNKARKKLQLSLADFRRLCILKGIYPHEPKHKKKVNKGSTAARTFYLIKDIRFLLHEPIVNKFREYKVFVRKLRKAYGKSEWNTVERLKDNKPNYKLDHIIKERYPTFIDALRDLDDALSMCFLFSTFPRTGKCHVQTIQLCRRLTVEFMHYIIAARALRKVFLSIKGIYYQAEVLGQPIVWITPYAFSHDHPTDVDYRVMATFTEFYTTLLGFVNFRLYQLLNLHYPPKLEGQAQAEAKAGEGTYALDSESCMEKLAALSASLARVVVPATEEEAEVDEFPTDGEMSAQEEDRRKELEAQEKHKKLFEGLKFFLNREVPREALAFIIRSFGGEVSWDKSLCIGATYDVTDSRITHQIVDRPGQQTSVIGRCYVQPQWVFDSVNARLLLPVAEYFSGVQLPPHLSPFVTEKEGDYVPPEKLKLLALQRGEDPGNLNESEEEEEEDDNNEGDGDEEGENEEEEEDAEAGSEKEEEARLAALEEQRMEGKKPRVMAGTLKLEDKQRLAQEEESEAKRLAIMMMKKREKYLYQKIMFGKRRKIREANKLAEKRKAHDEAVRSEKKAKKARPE
# Sequence of cysteines in MDA-MB-231 and Ramos cells (Homo sapiens, UniProt P52948) (P52948 whole entry): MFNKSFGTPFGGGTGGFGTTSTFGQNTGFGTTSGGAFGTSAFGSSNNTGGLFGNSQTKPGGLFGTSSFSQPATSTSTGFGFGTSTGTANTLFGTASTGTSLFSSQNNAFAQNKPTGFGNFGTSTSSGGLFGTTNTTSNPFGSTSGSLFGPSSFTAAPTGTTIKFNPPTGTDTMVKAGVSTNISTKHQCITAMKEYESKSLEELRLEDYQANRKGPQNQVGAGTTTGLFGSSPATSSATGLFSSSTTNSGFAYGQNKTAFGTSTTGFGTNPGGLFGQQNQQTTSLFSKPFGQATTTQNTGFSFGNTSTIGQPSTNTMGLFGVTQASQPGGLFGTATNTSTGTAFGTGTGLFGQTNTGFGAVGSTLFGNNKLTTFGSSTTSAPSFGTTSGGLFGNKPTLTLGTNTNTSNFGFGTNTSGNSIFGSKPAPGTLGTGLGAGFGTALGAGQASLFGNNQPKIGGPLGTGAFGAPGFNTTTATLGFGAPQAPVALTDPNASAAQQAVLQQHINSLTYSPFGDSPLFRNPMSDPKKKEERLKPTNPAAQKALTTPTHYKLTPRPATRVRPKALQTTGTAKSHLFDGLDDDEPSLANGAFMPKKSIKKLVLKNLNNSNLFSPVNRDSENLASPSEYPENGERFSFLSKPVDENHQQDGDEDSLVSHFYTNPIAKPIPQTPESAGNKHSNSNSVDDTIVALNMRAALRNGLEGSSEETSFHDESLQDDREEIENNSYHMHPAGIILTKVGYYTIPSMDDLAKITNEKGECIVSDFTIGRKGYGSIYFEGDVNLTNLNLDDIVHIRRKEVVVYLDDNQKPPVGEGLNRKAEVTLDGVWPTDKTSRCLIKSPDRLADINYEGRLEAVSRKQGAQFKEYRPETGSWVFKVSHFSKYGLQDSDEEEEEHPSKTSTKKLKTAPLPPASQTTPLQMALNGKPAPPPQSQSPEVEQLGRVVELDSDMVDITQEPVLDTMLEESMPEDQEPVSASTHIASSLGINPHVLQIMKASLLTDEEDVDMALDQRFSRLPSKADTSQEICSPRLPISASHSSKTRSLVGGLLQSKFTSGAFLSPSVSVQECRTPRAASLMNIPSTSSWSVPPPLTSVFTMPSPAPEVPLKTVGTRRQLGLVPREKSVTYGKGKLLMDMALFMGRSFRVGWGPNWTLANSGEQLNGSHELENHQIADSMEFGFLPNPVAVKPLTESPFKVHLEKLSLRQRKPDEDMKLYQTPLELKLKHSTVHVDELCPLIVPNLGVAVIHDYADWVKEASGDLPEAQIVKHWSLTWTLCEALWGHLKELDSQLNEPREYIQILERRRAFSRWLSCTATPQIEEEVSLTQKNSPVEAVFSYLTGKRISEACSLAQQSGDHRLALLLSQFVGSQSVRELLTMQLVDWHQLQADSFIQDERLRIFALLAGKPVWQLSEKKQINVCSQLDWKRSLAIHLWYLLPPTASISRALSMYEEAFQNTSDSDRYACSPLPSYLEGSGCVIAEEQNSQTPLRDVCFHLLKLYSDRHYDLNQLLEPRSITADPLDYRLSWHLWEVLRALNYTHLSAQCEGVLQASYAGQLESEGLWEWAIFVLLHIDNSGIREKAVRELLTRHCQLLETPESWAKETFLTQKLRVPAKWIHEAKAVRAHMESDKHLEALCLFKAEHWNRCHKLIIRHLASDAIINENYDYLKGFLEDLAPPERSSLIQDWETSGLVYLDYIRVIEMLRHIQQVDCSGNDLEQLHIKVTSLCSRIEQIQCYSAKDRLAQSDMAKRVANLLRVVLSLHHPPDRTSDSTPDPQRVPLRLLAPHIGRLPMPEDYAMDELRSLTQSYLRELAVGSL
# Sequence of O114933_C98 (O14933 whole entry, the tested form may be a part): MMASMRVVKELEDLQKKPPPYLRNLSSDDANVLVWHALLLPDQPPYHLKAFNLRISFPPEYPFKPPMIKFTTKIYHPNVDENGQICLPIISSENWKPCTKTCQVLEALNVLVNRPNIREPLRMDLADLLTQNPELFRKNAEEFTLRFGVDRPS
# Sequence of cysteines in MDA-MB-231 and Ramos cells (Homo sapiens, UniProt Q96FX7) (Q96FX7 whole entry, the tested form may be a part): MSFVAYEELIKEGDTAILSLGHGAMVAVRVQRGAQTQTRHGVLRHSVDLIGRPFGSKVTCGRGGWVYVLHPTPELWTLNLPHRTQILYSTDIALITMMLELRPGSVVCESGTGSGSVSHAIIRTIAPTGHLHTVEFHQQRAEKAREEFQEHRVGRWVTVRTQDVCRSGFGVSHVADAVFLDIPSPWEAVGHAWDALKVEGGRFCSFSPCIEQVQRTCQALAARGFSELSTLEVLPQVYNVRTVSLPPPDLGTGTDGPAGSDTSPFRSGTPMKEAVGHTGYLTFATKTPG
# Sequence of cysteines in MDA-MB-231 and Ramos cells (Homo sapiens, UniProt Q9UJW0) (Q9UJW0 whole entry): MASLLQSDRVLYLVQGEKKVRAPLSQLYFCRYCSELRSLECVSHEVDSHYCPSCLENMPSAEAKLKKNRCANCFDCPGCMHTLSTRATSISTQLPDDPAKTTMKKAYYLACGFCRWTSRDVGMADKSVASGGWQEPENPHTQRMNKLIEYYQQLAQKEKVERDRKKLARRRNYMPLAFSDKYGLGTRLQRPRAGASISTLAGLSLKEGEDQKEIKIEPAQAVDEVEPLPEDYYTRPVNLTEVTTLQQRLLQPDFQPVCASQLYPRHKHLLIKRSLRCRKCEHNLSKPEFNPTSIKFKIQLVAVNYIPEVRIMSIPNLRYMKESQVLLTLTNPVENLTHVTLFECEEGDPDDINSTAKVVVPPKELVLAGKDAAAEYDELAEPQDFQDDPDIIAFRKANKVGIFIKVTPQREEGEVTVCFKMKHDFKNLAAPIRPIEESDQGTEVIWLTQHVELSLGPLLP
smiles,measurement,setting,value
O=C(CCl)NC1C(O)OC(CO)C(O)C1O (mixture of isomers) [compound 44],"isoTOP-ABPP reactivity profile ratio, O114933_C98",[1]; in-vitro_ramos_231,2.0
COc1ccc2c(c1)CCCN2C(=O)CCl [compound 2],isoTOP-ABPP reactivity Q96FX7_C209 TRMT61A,"[2]; 200 μM, insitu, 231",20.0
same,isoTOP-ABPP reactivity Q9UJW0_C258 DCTN4,"[3]; 200 μM, insitu, 231",4.0
COc1ccc(C2CC(c3cccs3)=NN2C(=O)CCl)cc1 (stereo not drawn) [compound 4],isoTOP-ABPP reactivity Q96FX7_C209 TRMT61A,[2]; 100 μM in situ 231,2.4
COc1cc2c(cc1OC)CN(C(=O)CCl)CC2 [compound 8],isoTOP-ABPP reactivity Q8N1F7_0522 NUP93,[4]; 231,20.0
same,isoTOP-ABPP reactivity Q9UJW0_C258 DCTN4,"[3]; 200 μM, insitu, 231",20.0
O=C(CCl)N1CCC(Cc2ccccc2)CC1 [compound 9],isoTOP-ABPP reactivity Q07065_C100 CKAP4,"[5]; 200 μM, insitu, 231",15.4
O=C(CCl)N1CCN(S(=O)(=O)c2ccccc2F)CC1 [compound 10],isoTOP-ABPP ratio Q9UJW0_C258,"[3]; 200 μM, insitu, 231",20.0
same,isoTOP-ABPP ratio Q9UJW0_C258,"[3]; 200 μM, insitu, ramos",20.0
same,"isoTOP-ABPP ratio, cysteine P52948_C1312",[6],20.0
Cn1cc(S(=O)(=O)N2CCOCC2)cc1C(=O)NC(=O)CCl [compound 11],isoTOP-ABPP ratio Q9UJW0_C258,[3]; 100 μM in situ 231,20.0
same,"isoTOP-ABPP ratio, cysteine Q07065_C100",[5]; 100 μM in situ 231,1.0
O=C(CCl)NC(=O)NC12CC3CC(CC(C3)C1)C2 [compound 12],isoTOP-ABPP ratio Q8N1F7_C522,[4]; 231,20.0
same,"isoTOP-ABPP ratio, cysteine Q96FX7_C209","[2]; 200 μM, insitu, 231",20.0
same,isoTOP-ABPP ratio Q9UJW0_C258,"[3]; 200 μM, insitu, 231",20.0
same,"isoTOP-ABPP ratio, cysteine Q07065_C100","[5]; 200 μM, insitu, 231",20.0
same,"isoTOP-ABPP ratio, cysteine P52948_C1312",[6],20.0
O=C(CCl)NCCc1c[nH]c2ccccc12 [compound 13],isoTOP-ABPP ratio Q8N1F7_C522,[4]; ramos,2.2
same,"isoTOP-ABPP ratio, cysteine Q96FX7_C209","[2]; 200 μM, insitu, 231",2.1
same,"isoTOP-ABPP ratio, cysteine Q96FX7_C209","[2]; 200 μM, insitu, ramos",6.8
same,isoTOP-ABPP ratio Q9UJW0_C258,"[3]; 200 μM, insitu, ramos",1.9
same,"isoTOP-ABPP ratio, cysteine Q07065_C100","[5]; 200 μM, insitu, 231",1.6
same,"isoTOP-ABPP ratio, cysteine P52948_C1312",[6],1.2
O=C(CCl)NC12CC3CC(CC(C3)C1)C2 [compound 21],"isoTOP-ABPP ratio, cysteine Q96FX7_C209","[2]; 200 μM, insitu, 231",2.0
same,"isoTOP-ABPP ratio, cysteine Q07065_C100","[5]; 200 μM, insitu, 231",2.2
same,"isoTOP-ABPP ratio, cysteine P52948_C1312",[6],1.1
CC(C)CCOCCNC(=O)CCl [compound 27],isoTOP-ABPP ratio Q9UJW0_C258,"[3]; 200 μM, insitu, 231",0.8
same,isoTOP-ABPP ratio P52948_C1312,[6],1.3
O=C(CCl)N1CCN(CC(=O)N2CCOCC2)CC1 [compound 29],isoTOP-ABPP ratio Q8N1F7_C522,[4]; ramos,1.7
same,isoTOP-ABPP ratio Q9UJW0_C258,"[3]; 200 μM, insitu, ramos",20.0
C=CC(=O)N(Cc1cccnc1)c1cc(C(F)(F)F)cc(C(F)(F)F)c1 [compound 31],isoTOP-ABPP ratio Q8N1F7_C522,[4]; ramos,3.6
O=C(CCl)Nc1ccccc1C1CCCCCC1 [compound 35],"isoTOP-ABPP reactivity ratio, O00541_C272",[7]; in-vitro_ramos,1.2
same,"isoTOP-ABPP reactivity ratio, O00541_C272",[7]; in-vitro_ramos_231,0.8
C=CC(=O)N1CCC(c2noc3ccc(F)cc23)CC1 [compound 37],"isoTOP-ABPP reactivity ratio, O00541_C272",[7]; in-vitro_ramos,1.0
C=CC(=O)Nc1cc(F)c(N2CCN(C(=O)OC(C)(C)C)CC2)c(F)c1 [compound 38],"isoTOP-ABPP reactivity ratio, O00541_C272",[7]; in-vitro_ramos_231,1.0
same,isoTOP-ABPP ratio Q8N1F7_C522,[4]; 231,1.7
same,isoTOP-ABPP ratio Q96FX7_C209,"[2]; 200 μM, insitu, 231",1.0
same,isoTOP-ABPP ratio P52948_C1312,[6],1.3
Cc1ccc(C=C(C#N)C(=O)NCCN2CCOCC2)cc1 [compound 41],isoTOP-ABPP ratio Q8N1F7_C522,[4]; 231,0.8
same,isoTOP-ABPP ratio Q9UJW0_C258,"[3]; 200 μM, insitu, 231",0.7
same,isoTOP-ABPP ratio Q07065_C100,"[5]; 200 μM, insitu, 231",1.0
N#CC(=Cc1ccc(-c2ccccc2Cl)o1)C(N)=O [compound 42],"isoTOP-ABPP reactivity profile ratio, O114933_C98",[1]; in-vitro_ramos,1.0
CC1CCc2ccccc2N1C(=O)CCl (stereo not drawn) [compound 45],isoTOP-ABPP ratio Q8N1F7_C522,[4]; 231,20.0
same,isoTOP-ABPP ratio Q96FX7_C209,"[2]; 200 μM, insitu, 231",20.0
same,isoTOP-ABPP ratio Q9UJW0_C258,"[3]; 200 μM, insitu, 231",2.7
same,isoTOP-ABPP ratio Q07065_C100,"[5]; 200 μM, insitu, 231",20.0
O=C(CCl)N1CCc2cc(Br)ccc21 [compound 50],"isoTOP-ABPP reactivity profile ratio, O114933_C98",[1]; in-vitro_ramos_231,1.5
O=C(CCl)Nc1cccc2ncccc12 [compound 51],isoTOP-ABPP ratio Q9UJW0_C258,"[3]; 200 μM, insitu, 231",1.1
O=C(CCl)Nc1ccc(-c2ccccc2)cc1 [compound 52],"isoTOP-ABPP reactivity profile ratio, O114933_C98",[1]; in-vitro_ramos,1.4
same,"isoTOP-ABPP reactivity profile ratio, O114933_C98",[1]; in-vitro_ramos_231,1.4
C=CC(=O)N1CCC(Cc2ccccc2)CC1 [compound 53],"isoTOP-ABPP reactivity profile ratio, O114933_C98",[1]; in-vitro_ramos,1.0
